Data taken from PubChem BioAssay (NCI).
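Dose response: 5 concentrations. Exposure: 48 h. Format: 96-well plates. Endpoint: linear interpolation; highest concentration if not reached. TGI marks complete inhibition of growth.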

Legend:
Assay in all cases: NCI tumour cell line growth inhibition, 48 h
786-0 renal = test system: 786-0 renal
A498 renal = test system: A498 renal
A549 NSCLC = test system: A549 NSCLC
ACHN renal = test system: ACHN renal
CAKI-1 renal = test system: CAKI-1 renal
COLO 205 colon = test system: COLO 205 colon
DU-145 prostate = test system: DU-145 prostate
EKVX NSCLC = test system: EKVX NSCLC
HCC-2998 colon = test system: HCC-2998 colon
HCT-116 colon = test system: HCT-116 colon
HCT-15 colon = test system: HCT-15 colon
HL-60(TB) leukemia = test system: HL-60(TB) leukemia
HOP-62 NSCLC = test system: HOP-62 NSCLC
HOP-92 NSCLC = test system: HOP-92 NSCLC
HS 578T breast = test system: HS 578T breast
HT29 colon = test system: HT29 colon
IGROV1 ovarian = test system: IGROV1 ovarian
K-562 leukemia = test system: K-562 leukemia
KM12 colon = test system: KM12 colon
LOX IMVI melanoma = test system: LOX IMVI melanoma
M14 melanoma = test system: M14 melanoma
MALME-3M melanoma = test system: MALME-3M melanoma
MCF7 breast = test system: MCF7 breast
MDA-MB-231 breast = test system: MDA-MB-231 breast
MDA-MB-435 = test system: MDA-MB-435
MDA-N = test system: MDA-N
MOLT-4 leukemia = test system: MOLT-4 leukemia
NCI-H226 lung = test system: NCI-H226 lung
NCI-H23 lung = test system: NCI-H23 lung
NCI-H460 lung = test system: NCI-H460 lung
NCI/ADR-RES ovarian = test system: NCI/ADR-RES ovarian
OVCAR-3 ovarian = test system: OVCAR-3 ovarian
OVCAR-4 ovarian = test system: OVCAR-4 ovarian
OVCAR-5 ovarian = test system: OVCAR-5 ovarian
OVCAR-8 ovarian = test system: OVCAR-8 ovarian
PC-3 prostate = test system: PC-3 prostate
RPMI-8226 leukemia = test system: RPMI-8226 leukemia
RXF 393 renal = test system: RXF 393 renal
SF-268 CNS = test system: SF-268 CNS
SF-295 CNS = test system: SF-295 CNS
SF-539 CNS = test system: SF-539 CNS
SK-MEL-2 melanoma = test system: SK-MEL-2 melanoma
SK-MEL-28 melanoma = test system: SK-MEL-28 melanoma
SK-OV-3 ovarian = test system: SK-OV-3 ovarian
SN12C renal = test system: SN12C renal
SNB-19 CNS = test system: SNB-19 CNS
SNB-75 CNS = test system: SNB-75 CNS
SR leukemia = test system: SR leukemia
SW-620 colon = test system: SW-620 colon
T-47D breast = test system: T-47D breast
TK-10 renal = test system: TK-10 renal
U251 CNS = test system: U251 CNS
UACC-257 melanoma = test system: UACC-257 melanoma
UACC-62 melanoma = test system: UACC-62 melanoma
UO-31 renal = test system: UO-31 renal

CSC(Cc1ccc2c(c1)Sc1ccccc1O2)=[N+]1CCOCC1
TGI (786-0 renal): > 100 µM
TGI (A498 renal): > 100 µM
TGI (A549 NSCLC): > 100 µM
TGI (ACHN renal): > 100 µM
TGI (CAKI-1 renal): > 100 µM
TGI (COLO 205 colon): > 100 µM
TGI (DU-145 prostate): > 100 µM
TGI (EKVX NSCLC): > 100 µM
TGI (HCC-2998 colon): > 100 µM
TGI (HCT-116 colon): > 100 µM
TGI (HCT-15 colon): > 100 µM
TGI (HL-60(TB) leukemia): > 100 µM
TGI (HOP-62 NSCLC): > 100 µM
TGI (HOP-92 NSCLC): > 100 µM
TGI (HS 578T breast): 86.6 µM
TGI (HT29 colon): > 100 µM
TGI (IGROV1 ovarian): > 100 µM
TGI (K-562 leukemia): > 100 µM
TGI (KM12 colon): > 100 µM
TGI (LOX IMVI melanoma): > 100 µM
TGI (M14 melanoma): > 100 µM
TGI (MALME-3M melanoma): 90.9 µM
TGI (MCF7 breast): > 100 µM
TGI (MDA-MB-231 breast): > 100 µM
TGI (MDA-MB-435): > 100 µM
TGI (MDA-N): > 100 µM
TGI (MOLT-4 leukemia): > 100 µM
TGI (NCI-H226 lung): > 100 µM
TGI (NCI-H23 lung): > 100 µM
TGI (NCI-H460 lung): > 100 µM
TGI (NCI/ADR-RES ovarian): > 100 µM
TGI (OVCAR-3 ovarian): > 100 µM
TGI (OVCAR-4 ovarian): > 100 µM
TGI (OVCAR-5 ovarian): > 100 µM
TGI (OVCAR-8 ovarian): > 100 µM
TGI (PC-3 prostate): > 100 µM
TGI (RPMI-8226 leukemia): > 100 µM
TGI (RXF 393 renal): > 100 µM
TGI (SF-268 CNS): > 100 µM
TGI (SF-295 CNS): > 100 µM
TGI (SF-539 CNS): > 100 µM
TGI (SK-MEL-2 melanoma): > 100 µM
TGI (SK-MEL-28 melanoma): > 100 µM
TGI (SK-OV-3 ovarian): > 100 µM
TGI (SN12C renal): > 100 µM
TGI (SNB-19 CNS): > 100 µM
TGI (SNB-75 CNS): > 100 µM
TGI (SR leukemia): 11.7 µM
TGI (SW-620 colon): > 100 µM
TGI (T-47D breast): > 100 µM
TGI (TK-10 renal): > 100 µM
TGI (U251 CNS): > 100 µM
TGI (UACC-257 melanoma): > 100 µM
TGI (UACC-62 melanoma): > 100 µM
TGI (UO-31 renal): > 100 µM
